Patent US9301923B2, “Lipids, lipid compositions, and methods of using them” (NOVARTIS AG, priority 2009, dated 2016)

Columns and labels:
[1] = pKa of the lipid by TNS fluorescence; format: physicochemical; conditions: pKa
In short: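 Lipid dissolved in ethanol (2 mM stock) and measured with TNS across eight buffers of differing pH, in water at standard temperature and pressure. Normalized fluorescence intensity plotted against pH and points joined by a smooth line to derive pKa, precise to about 0.2 units.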

[2] = tested on: PLK-1 mRNA in HepG2 tumors; assay: HepG2 tumor study, PLK-1 mRNA KD in tumor tissue; format: in vivo, human; conditions: Mus musculus, HepG2, iv, 24 h, HepG2 tumor in nude mice, 3 × 3 mg/kg siRNA iv, tumors harvested 24 hrs after the last dose; read-out: PLK1 % inhibition
Description: (§1) Formulated siRNAs are made up of double stranded siRNA sequences specific to a target mRNA sequence, and are in the form of lipid nucleotid particles (LNPs) containing cationic lipids, stealth lipids and neutral lipids, as provided in the Examples below. The siRNA construct for use in targeting the liver is specific to Factor VII. The siRNA construct for use in targeting tumors is specific to PLK1-424, which is published by Judge et al., See, J Clin Invest. 2009 March; 119(3):661-73; doi: 10.1172/JCI37515). • 1. FVII siRNA duplex sequence
HepG2 tumors are established in female nude mice by sc injection of 5×10^6 cells in 100 ul PBS into the left flank. Mice are randomized into treatment groups 10-14 days after seeding as tumors reached an average size of 150 mm^3. siRNA formulated LNP formulations are administered at 3×3 mg/kg dose levels intravenously via the lateral tail vein calculated on a mg siRNAs/kg basis according to individual animal weights (10 ml/kg injection volume). Mice are euthanized by CO2 inhalation at various time points and the tumors are harvested 24 hrs after the last dose for mRNA quantitation. Lipids with a wide range of pKa (5.3-6.6) are used in the LNP formulations. Tumors are measured in 2 dimensions (width×length) to assess tumor growth using digital calipers. Tumor volume is calculated using the equation [a×b×b/2], where a=largest diameter and b=smallest diameter.
About 30-50 mg tumor tissue is homogenized in tissue lysis buffer in a Qiagen homogenizer followed by centrifugation to clarify lysates. Total RNA is isolated using RNeasy isolation kit (catalog number 74106) according to the manufacture's protocol. PLK-1 mRNA is analyzed by quantitative PCR and normalized to human GAPDH. Applied Biosystems human PLK-1 gene expression assay Hs00983229_m1 and human GAPDH endogenous control cat number 4326317E are used for mRNA detection.
The pKa in all tables refers to the pKa of the cationic lipid. Where multiple doses are indicated (e.g., 3×5), the first number indicates the number of doses given and the second number indicates the amount per dose in mg siRNA (biologically active agent) per kg mouse. In general the multiple doses are administered at 24 hour intervals, and tissues for mRNA quantitation are harvested 24 hours after the last dose.

[3] = tested on: PLK-1 mRNA in Hep3B tumors; assay: Hep3B tumor study, PLK-1 mRNA KD in tumor tissue; format: in vivo, human; conditions: for PLK1 inhibition %: Hep3B tumor, mouse, i.v., LNP composition as in the source; for % KD: Table 9 experiment
[4] = Particle size and PDI by dynamic light scattering (Malvern Zetasizer); format: physicochemical; parameters: Final size: unit not given here; conditions: for Final size: LNP formulation
In short: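 Nanoparticles diluted in PBS to a count rate of about 200-400 kcts and measured by dynamic light scattering; size given as intensity-weighted average diameter, with polydispersity index from the same measurement.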

Factor VII = Factor VII activity assay, in vivo liver delivery of FVII siRNA LNP; parameters: species or system mouse; conditions: dose 1 mg/kg siRNA i.v., ~48 h; lipid/no neutral lipid/CHOL/GM-020 NOF 60/0/36/4, N/P 3
In short: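 Female CD-1 mice (~25 g) given a single i.v. tail-vein dose of FVII siRNA in LNPs (cationic, stealth, neutral lipids), dosed as mg siRNA/kg. Plasma collected ~48 h post-injection; FVII activity read against a standard curve from pooled vehicle-control plasma.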

[5] = tested on: PLK-1 mRNA in 786-0 tumors; assay: 786-0 renal tumor study, PLK-1 mRNA KD in tumor tissue; format: in vivo, human; conditions: tumors collected 48 hrs after the single dose, read-out: PLKI % Inhibition
Description: as §1
786-0 tumors are established as described before by sc injection of 10×10^6 cells in 200 ul PBS. 4 weeks post implantation, the mice with the tumor size ranging from 200-250 mm^3 are randomized into treatment groups. siRNA formulated LNPs are then intravenously administered at either 5 or 10 mg/kg dose levels. 48 hrs after the single dose, tumors are collected for mRNA quantitation.
About 30-50 mg tumor tissue is homogenized in tissue lysis buffer in a Qiagen homogenizer followed by centrifugation to clarify lysates. […] PLK-1 mRNA is analyzed by quantitative PCR and normalized to human GAPDH. […]
The pKa in all tables refers to the pKa of the cationic lipid. […] In general the multiple doses are administered at 24 hour intervals, and tissues for mRNA quantitation are harvested 24 hours after the last dose.

[6] = LNP formulation with PLK1 siRNA, helper, neutral and stealth lipid, molar ratio and N/P as in the table, stealth lipid S004, molar ratio 45/43/10/2, N/P 4
[7] = LNP formulation with PLK1 siRNA, helper, neutral and stealth lipid, molar ratio and N/P as in the table, stealth lipid S004, molar ratio 50/48/2, N/P 4
[8] = lipid/no neutral lipid/CHOL/GM-020 NOF 60/0/36/4, N/P 3
[9] = LNP formulation with PLK1 siRNA, helper, neutral and stealth lipid, molar ratio and N/P as in the table, stealth lipid S004, molar ratio 50/43/5/2, N/P 4
[10] = LNP formulation with PLK1 siRNA, helper, neutral and stealth lipid, molar ratio and N/P as in the table

Structure (SMILES)	pKa [1]	inhibition at 3 mg/kg [2] [%]	PLK1 inhibition % ([3]; 1 × 0.1 mg siRNA/kg) [%]	Final size ([4]; Table 10)	PLK1 inhibition % ([3]; 1 × 1 mg siRNA/kg) [%]	Final size (nm) [4, 10] [nm]	also measured
CCCCC/C=C\C/C=C\CCCCCCCCOCC(CN1CCCCC1)OCCO[C@H]1CC[C@@]2(C)C(=CC[C@H]3[C@@H]4CC[C@H]([C@H](C)CCCC(C)C)[C@@]4(C)CC[C@@H]32)C1 (some centres unmarked) [E0076]	5.85	35	0	86.03	–	–	PLK1 inhibition % ([3]; 1 × 5 mg siRNA/kg): 85%; Final size (nm) [4, 6]: 80.98 nm; Final size (nm) [4, 7]: 86.03 nm; Final size (nm) ([4]; LNP formulation with PLK1 siRNA, helper, neutral and stealth lipid, molar ratio and N/P as in the table, stealth lipid S011, molar ratio 60/38/2, N/P 4): 89.89 nm; Final size (nm) [4, 8]: 89.47 nm; PDI [4, 8]: 0.143; FVII inhib % (Factor VII): 29.3%
CCCCCCCC/C=C\CCCCCCCCOCC(CN1CCCCC1)OCCCOC(=O)CCC(=O)O[C@H]1CC[C@@]2(C)C(=CC[C@H]3[C@@H]4CC[C@H]([C@H](C)CCCC(C)C)[C@@]4(C)CC[C@@H]32)C1 (some centres unmarked) [E0178]	5.92	0	0	94.67	–	–	% KD ([3]; 0.1 mg/kg): 0%; % KD ([3]; 1.0 mg/kg): 35%; Final size (nm) [4, 9]: 94.67 nm; Final size (nm) [4, 7]: 88.39 nm
CCCCC/C=C\C/C=C\CCCCCCCCCCOCC(CN1CCCCC1)OCCCOCCCO[C@H]1CC[C@@]2(C)C(=CC[C@H]3[C@@H]4CC[C@H]([C@H](C)CCCC(C)C)[C@@]4(C)CC[C@@H]32)C1 (some centres unmarked) [E0096]	5.77	17	–	94.91	–	–	Final size (nm) [4, 8]: 128.8 nm; PDI [4, 8]: 0.162; FVII inhib % (Factor VII): 14.4%
CCCCCCCC/C=C\CCCCCCCCOCC(CCN1CCOCC1)OCCOCCO[C@H]1CC[C@@]2(C)C(=CCC3C2CC[C@@]2(C)C3CC[C@@H]2[C@H](C)CCCC(C)C)C1 (some centres unmarked) [E0180]	–	0	–	77.35	16	77.35	–
CCCCCCCC/C=C\CCCCCCCCOCC(CN1CCCC(C)C1)OCCOCCO[C@H]1CC[C@@]2(C)C(=CC[C@H]3[C@@H]4CC[C@H]([C@H](C)CCCC(C)C)[C@@]4(C)CC[C@@H]32)C1 (some centres unmarked) [E0119]	5.82	22	–	99.37	40	99.37	–
CCCCCCCC/C=C\CCCCCCCCOCC(CN1CCOCC1)OCCOCCO[C@H]1CC[C@@]2(C)C(=CC[C@H]3[C@@H]4CC[C@H]([C@H](C)CCCC(C)C)[C@@]4(C)CC[C@@H]32)C1 (some centres unmarked) [E0085]	5.32	40	53	76.8	–	–	PLK1 inhibition % ([3]; 1 × 2 mg siRNA/kg): 62%; PLK1 inhibition % ([3]; 1 × 5 mg siRNA/kg): 69%; PLK1 inhibition % ([3]; 1 × 10 mg siRNA/kg): 55%; Final size (nm) [4, 6]: 76.8 nm; Final size (nm) ([4]; LNP formulation with PLK1 siRNA, helper, neutral and stealth lipid, molar ratio and N/P as in the table, stealth lipid S004, molar ratio 50/38/10/2, N/P 4): 88.33 nm; Final size (nm) [4, 9]: 87.74 nm; Final size (nm) ([4]; LNP formulation with PLK1 siRNA, helper, neutral and stealth lipid, molar ratio and N/P as in the table, stealth lipid S004, molar ratio 50/48/0/2, N/P 4): 96.42 nm; Final size (nm) ([4]; LNP formulation with PLK1 siRNA, helper, neutral and stealth lipid, molar ratio and N/P as in the table, stealth lipid S004, molar ratio 60/38/2, N/P 4): 90.06 nm; Final size (nm) ([4]; LNP formulation with PLK1 siRNA, helper, neutral and stealth lipid, molar ratio and N/P as in the table, stealth lipid S011, molar ratio 40/48/10/2, N/P 4): 81.83 nm
CCCCC/C=C\C/C=C\CCCCCCCCOCC(CN1CCOCC1)OCCOCCNC(=O)O[C@H]1CC[C@@]2(C)C(=CC[C@H]3[C@@H]4CC[C@H]([C@H](C)CCCC(C)C)[C@@]4(C)CC[C@@H]32)C1 (some centres unmarked) [E0176]	5.56	37	–	99.14	36	99.14	–
CCCCC/C=C\C/C=C\CCCCCCCCOCC(CN1CCCCC1)OCCOC(=O)CCC(=O)O[C@H]1CC[C@@]2(C)C(=CC[C@H]3[C@@H]4CC[C@H]([C@H](C)CCCC(C)C)[C@@]4(C)CC[C@@H]32)C1 (some centres unmarked) [E0104]	6.1	32	–	–	–	–	PLK1 inhibition % ([3]; 1 × 1 mg siRNA/kg, stealth lipid S004, molar ratio 50/48/2, N/P 3): 48%; PLK1 inhibition % ([3]; 1 × 1 mg siRNA/kg, stealth lipid S004, molar ratio 50/48/2, N/P 4): 50%; Final size ([4]; Table 11, lipid molar ratio 45/43/10/2): 87.59; Final size ([4]; Table 11, lipid molar ratio 50/48/2): 95.05; inhibition at 5 mg/kg ([5]; 1 × 5 mg/kg iv): 55%; inhibition at 10 mg/kg ([5]; 1 × 10 mg/kg iv): 50%
CCCCC/C=C\C/C=C\CCCCCCCCOC[C@@H](CN1CCC[C@@H]1C)OCCCOC(=O)CCC(=O)O[C@H]1CC[C@@]2(C)C(=CCC3C2CC[C@@]2(C)C3CC[C@@H]2[C@H](C)CCCC(C)C)C1 (some centres unmarked) [E0161]	6.3	0	–	101.4	45	101.4	–
